Patent US5674909A, “Derivatives of 2-amino-1,2,3,4-tetrahydronaphthalene active on the cardiovascular system” (Zambon Group, priority 1994, dated 1997)
Where a name gives a salt, the structure may show the parent alone.

What was measured:
[1] = biological target: T1, D2 -like (Rabbit Ear Artery) (Oryctolagus cuniculus, UniProt G1T1Q0); experiment: D2-like activity in the Rabbit Ear Artery (REA) test; set-up: species or system New Zealand rabbit; conditions: agonist activity at the peak of the effect; electrically stimulated
T1 construct: the central ear artery was dissected into 3 mm long rings; from tissue; host or cells: rabbit central ear artery rings (male New Zealand rabbits), electrically stimulated
Description: Arterial rings were prepared according to the method described by Steinsland et al., Science, 1978, 443, 199, modified as follows. Male New Zealand rabbits weighing 2.5-3 Kg were sacrificed by intravenous injection of an excess of pentobarbital sodium and exsanguinated. The two ears were taken away and the central ear artery was dissected into 3 mm long rings.
These preparations were set up in a 25 ml organ bath containing Krebs solution (mM/l): NaCl 118, KCl 4.7, CaCl2 2.5, MgSO4 1.2, NaHCO3 25, KH2 PO4 1.2, glucose 11.1, equilibrated with 95% 02 -5% CO2 and maintained at 35°±1° C.
Krebs solution was medicated with EDTA (10 μM) to prevent cathecolamine oxydation, desipramine (0.1 μM) and corticosterone (30 μM), to block neuronal and extraneuronal cathecolamine uptake. The preparations were electrically stimulated (10 Hz, 1 msec, 40-80 mA, 500 msec duration) at 5 minutes intervals.
(§1) The tested compounds were cumulatively administered.
(§2) Ref. A was used as reference substance.
(§3) Agonist activity evaluated at the peak of the effect and expressed as potency ratio (EC50 of Ref. A/EC50 of tested compound) is reported in table 2.

D1 receptor = D1 receptor (Rattus norvegicus, UniProt P18901); experiment: biochemical; assay type: binding, rat (Sprague-Dawley); conditions: [3H]-SCH23390 0.2 nM, rat striated membranes, pH 7.4, 37° C., 20 minutes; read-out: Affinity [K1 (nM)] towards D1 receptor
Description: (§4) The tissue were homogenized in 50 mM Tris/HCl buffer at pH 7.4 (1:100 w/v).
(§5) The homogenate was centrifuged and the pellet resuspended, recentrifuged and resuspended again in 50 mM Tris/HCl buffer at pH 7.4 containing 120 mM NaCl, 5 mM KCl, 2 mM CaCl2 and 1 mM MgCl2.
The mixture was incubated with different concentrations of the tested compounds at 37° C. for 20 minutes, filtered under vacuum through Whatman GF/C filters and then washed 4 times with 5 ml of 50 mM Tris/HCl buffer (pH 7.4) cooled with ice.

D2 receptor = D2 receptor (Rattus norvegicus, UniProt P61169); experiment: biochemical; assay type: binding, rat (Sprague-Dawley); conditions: [3H]-domperidone 0.3 nM, rat striated membranes, 0.01% BSA, 37° C., 30 minutes; read-out: Affinity [K1 (nM)] towards D2 receptor
Description: as §4, §5
Furthermore, bovine serum albumine (BSA) (0.01%) was added.
The mixture was incubated at 37° C. for 30 minutes for each concentration of tested compounds.

[2] = system: D1 -like (Rabbit Splenic Artery); experiment: D1-like activity in the Rabbit Splenic Artery (RSA) test; conditions: agonist activity at the peak of the effect; contracted with U46619 0.1 μM
Description: Arterial rings were prepared according to Semeraro et al., Naunyn. Schmied. Arch. Pharmacol., 1990, 342, 539.
The arterial preparations were contracted with U46619 (9,11-di-deoxy-11α,9α-epoxy-methanoprostaglandin F2α) at the submaximal concentration 0.1 μM.
as §1, §2, §3

[3] = system: spontaneously hypertensive rats; experiment: In vivo antihypertensive activity, i.v., spontaneously hypertensive rats; set-up: species or system rat (spontaneously hypertensive, Charles River); conditions: 30 nmol/kg i.v. bolus; recorded over 4 hours; basal MBP 190-200 mmHg; Ref. A n = 6, Compound 22 n = 7
Description: Male spontaneously hypertensive rats (Charles River) more than 14 weeks old were used.
Catheters were inserted into the right carotid artery and into the left giugular vein under barbituric anesthesia.
The animals were allowed to recover overnight.
The tested compounds were administered into the left giugular vein by bolus injection.
Control animals were injected with an equal volume of vehicle. The induced effect was continuously recorded over a period of 4 hours.
Basal values of Mean Blood Pressure (MBP) were in the range of 190-200 mmHg.
The antihypertensive activity of compound 22 expressed as MBP reduction compared with the antihypertensive activity of Ref. A is reported in the following table.

[4] = Fitton and Benfield, Drugs 1990; cited from earlier work
dopaminergic receptors = conditions: Fitton and Benfield, Drugs 1990; cited from earlier work

Sequence of D1 receptor (P18901 whole entry): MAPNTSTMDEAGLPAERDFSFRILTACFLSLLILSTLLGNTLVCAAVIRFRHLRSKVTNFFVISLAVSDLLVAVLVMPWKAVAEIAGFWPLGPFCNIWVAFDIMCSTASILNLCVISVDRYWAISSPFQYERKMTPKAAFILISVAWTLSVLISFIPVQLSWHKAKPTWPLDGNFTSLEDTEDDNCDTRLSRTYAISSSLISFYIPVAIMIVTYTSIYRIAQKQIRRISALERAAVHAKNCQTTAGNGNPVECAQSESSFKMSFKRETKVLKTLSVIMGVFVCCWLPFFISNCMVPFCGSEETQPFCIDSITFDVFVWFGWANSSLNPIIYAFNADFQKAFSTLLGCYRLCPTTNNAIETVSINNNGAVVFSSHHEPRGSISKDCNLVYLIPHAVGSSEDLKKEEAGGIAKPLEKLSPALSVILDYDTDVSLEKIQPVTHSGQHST
T1 sequence (G1T1Q0 1-443): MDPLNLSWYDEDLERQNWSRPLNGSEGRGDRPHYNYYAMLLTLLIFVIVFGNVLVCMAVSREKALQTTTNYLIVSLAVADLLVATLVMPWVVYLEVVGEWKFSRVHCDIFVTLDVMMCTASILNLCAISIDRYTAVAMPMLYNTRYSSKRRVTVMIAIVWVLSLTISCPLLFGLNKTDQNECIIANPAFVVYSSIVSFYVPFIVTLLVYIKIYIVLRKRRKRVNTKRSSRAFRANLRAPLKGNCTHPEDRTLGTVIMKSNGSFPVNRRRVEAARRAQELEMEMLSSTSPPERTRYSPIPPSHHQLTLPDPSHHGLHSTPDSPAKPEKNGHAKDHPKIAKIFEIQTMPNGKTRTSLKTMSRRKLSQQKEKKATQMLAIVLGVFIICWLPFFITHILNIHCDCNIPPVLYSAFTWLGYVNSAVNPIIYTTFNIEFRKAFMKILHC
Sequence of D2 receptor (P61169 whole entry): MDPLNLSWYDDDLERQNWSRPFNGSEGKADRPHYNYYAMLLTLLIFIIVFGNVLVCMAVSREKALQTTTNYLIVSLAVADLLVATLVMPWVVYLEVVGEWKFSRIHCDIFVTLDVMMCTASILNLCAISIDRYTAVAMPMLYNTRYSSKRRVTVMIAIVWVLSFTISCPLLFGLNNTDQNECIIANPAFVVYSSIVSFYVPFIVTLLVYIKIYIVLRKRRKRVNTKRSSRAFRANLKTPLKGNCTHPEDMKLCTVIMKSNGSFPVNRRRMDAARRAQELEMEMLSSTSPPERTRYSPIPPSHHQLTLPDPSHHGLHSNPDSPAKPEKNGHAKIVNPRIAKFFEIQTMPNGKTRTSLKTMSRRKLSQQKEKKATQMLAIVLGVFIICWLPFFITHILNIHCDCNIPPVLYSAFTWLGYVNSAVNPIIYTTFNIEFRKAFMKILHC

| Structure (SMILES) | D2 -like (REA) potency ratio (EC50 of Ref. A/EC50 of tested compound) [1] | Ki (D1 receptor) [nM] | Ki (D2 receptor) [nM] | D1 -like (RSA) potency ratio (EC50 of Ref. A/EC50 of tested compound) [2] | MBP reduction, mean ± S.E. [3] [mmHg] | absorption when administered by oral route [4] | agonist activity at dopaminergic receptors compared with dopamine (dopaminergic receptors) |
| --- | --- | --- | --- | --- | --- | --- | --- |
| CCCN(CCCCCCNCCc1ccc2c(c1)OCO2)[C@H]1CCc2c(ccc(O)c2O)C1.Cl.Cl [Compound 2, (S)-N-propyl-N-[6-[2-(3,4-methylendioxyphenyl)ethylamino]hexyl]-5,6-dihydroxy-1,2,3,4-tetrahydro-2-naphthylamine dihydrochloride] | 0.3 | 25 | 0.4 | 10 | – | – | – |
| CCCN(CCCCCCNCCOc1ccccc1[N+](=O)[O-])[C@H]1CCc2c(ccc(O)c2O)C1 [Compound 4, (S)-N-propyl-N-[6-[2-(2-nitrophenoxy)ethylamino]hexyl]-5,6-dihydroxy-1,2,3,4-tetrahydro-2-naphthylamine dihydrochloride] | – | 78 | 1.1 | – | – | – | – |
| CCCN(CCCCCCNCCOc1ccc([N+](=O)[O-])cc1)[C@H]1CCc2c(ccc(O)c2O)C1 [Compound 5, (S)-N-propyl-N-[6-[2-(4-nitrophenoxy)ethylamino]hexyl]-5,6-dihydroxy-1,2,3,4-tetrahydro-2-naphthylamine dihydrochloride] | – | 69 | 1.5 | – | – | – | – |
| CCCN(CCCCCCNCCOc1ccc(S(C)(=O)=O)cc1)[C@H]1CCc2c(ccc(O)c2O)C1.Cl.Cl [Compound 6, (S)-N-propyl-N-[6-[2-(4-methylsulphonylphenoxy)ethylamino]hexyl]-5,6-dihydroxy-1,2,3,4-tetrahydro-2-naphthylamine dihydrochloride] | 3 | 81 | 1.3 | 10 | – | – | – |
| CCCN(CCCCCCNC(=O)COc1ccccc1OC)[C@H]1CCc2c(ccc(O)c2O)C1 [Compound 7, (S)-N-propyl-N-[6-[(2-methoxyphenoxy)acetylamino]hexyl]-5,6-dihydroxy-1,2,3,4-tetrahydro-2-naphthylamine hydrochloride] | – | 370 | 0.25 | – | – | – | – |
| Br.Br.CCCN(CCCCCCNCCSc1ccc(O)cc1)[C@H]1CCc2c(ccc(O)c2O)C1 [Compound 8, (S)-N-propyl-N-[6-[2-(4-hydroxyphenylthio)ethylamino]hexyl]-5,6-dihydroxy-1,2,3,4-tetrahydro-2-naphthylamine dihydrobromide] | 1.7 | 23 | 0.1 | 1 | – | – | – |
| Br.Br.CCCN(CCCCCCNCCCc1ccc(O)cc1)[C@H]1CCc2c(ccc(O)c2O)C1 [Compound 9, (S)-N-propyl-N-[6-[3-(4-hydroxyphenyl)propylamino]hexyl]-5,6-dihydroxy-1,2,3,4-tetrahydro-2-naphthylamine dihydrobromide] | 5 | 22 | 0.15 | 10 | – | – | – |
| Br.Br.CCCN(CCCCCCN1CCc2cc(O)c(O)cc2C1)[C@H]1CCc2c(ccc(O)c2O)C1 [Compound 10, (S)-N-propyl-N-[6-(6,7-dihydroxy-1,2,3,4-tetrahydroisoquinolin-2-yl)hexyl]-5,6-dihydroxy-1,2,3,4-tetrahydro-2-naphthylamine dihydrobromide] | 2 | 117 | 0.6 | 1.4 | – | – | – |
| Br.Br.CCCN(CCCCCCNCCCc1ccc(O)c(O)c1)[C@H]1CCc2c(ccc(O)c2O)C1 [Compound 13, (S)-N-propyl-N-[6-[3-(3,4-dihydroxyphenyl)propylamino]hexyl]-5,6-dihydroxy-1,2,3,4-tetrahydro-2-naphthylamine dihydrobromide] | 14 | 29 | 0.4 | 10 | – | – | – |
| Br.Br.Br.CCCN(CCCCCCN1CCN(Cc2ccc(O)cc2)CC1)[C@H]1CCc2c(ccc(O)c2O)C1 [Compound 15, (S)-N-propyl-N-[6-[4-(4-hydroxyphenylmethyl)piperazin-1-yl]hexyl]-5,6-dihydroxy-1,2,3,4-tetrahydro-2-naphthylamine trihydrobromide] | 0.5 | 119 | 0.24 | 0.9 | – | – | – |
| Br.Br.CCCN(CCCCCCNCCCc1ccccc1O)[C@H]1CCc2c(ccc(O)c2O)C1 [Compound 16, (S)-N-propyl-N-[6-[3-(2-hydroxyphenyl)propylamino]hexyl]-5,6-dihydroxy-1,2,3,4-tetrahydro-2-naphthylamine dihydrobromide] | 0.8 | 178 | 0.2 | 3 | – | – | – |
| Br.Br.CCCN(CCCCCCNCCc1ccc(S(C)(=O)=O)cc1)[C@H]1CCc2c(ccc(O)c2O)C1 [Compound 22, (S)-N-propyl-N-[6-[2-(4-methylsulphonylphenyl)ethylamino]hexyl]-5,6-dihydroxy-1,2,3,4-tetrahydro-2-naphthylamine dihydrobromide] | 3 | – | – | 14 | -61.7 ± 5.7 | – | – |
| CCCN(CCCCCCNCCOc1ccc(O)cc1)[C@H]1CCc2c(ccc(O)c2O)C1.Cl.Cl [Compound 24, (S)-N-propyl-N-[6-[2-(4-hydroxyphenoxy)ethylamino]hexyl]-5,6-dihydroxy-1,2,3,4-tetrahydro-2-naphthylamine dihydrochloride] | 3 | 45 | 1.8 | 17 | – | – | – |
| CCCN(CCCCCCOCCc1ccc(O)c(O)c1)[C@H]1CCc2c(ccc(O)c2O)C1.Cl [Compound 25, (S)-N-propyl-N-[6-[2-(3,4-dihydroxyphenyl)ethoxy]hexyl]-5,6-dihydroxy-1,2,3,4-tetrahydro-2-naphthylamine hydrochloride] | 1.3 | 130 | 0.6 | 1.7 | – | – | – |
| Br.CCCN(CCCCCCNC(=O)Cc1ccc(O)c(O)c1)[C@H]1CCc2c(ccc(O)c2O)C1 [Compound 34, (S)-N-propyl-N-[6-[(3,4-dihydroxyphenyl)acetylamino]hexyl]-5,6-dihydroxy-1,2,3,4-tetrahydro-2-naphthylamine hydrobromide] | 5 | 356 | 2.1 | 2.5 | – | – | – |
| NCCc1ccc(O)c(O)c1 [Dopamine] | – | – | – | – | – | not absorbed when administered by oral route | – |
| Oc1ccc(CCNCCCCCCNCCc2ccccc2)cc1O [Dopexamine, dopexamine] | – | – | – | – | – | not absorbed when administered by oral route | less active than dopamine |
| CCCN(CCCCCCNCCc1ccccc1OC)[C@H]1CCc2c(ccc(O)c2O)C1.Cl.Cl [Ref. A, (S)-N-propyl-N-[6-[2-(2-methoxyphenyl)ethylamino]hexyl]-5,6-dihydroxy-1,2,3,4-tetrahydro-2-naphthylamine dihydrochloride, reference compound] | – | 158 | 0.8 | 1 | -25 ± 1.1 | – | – |
